Measurements as given in US20070270429A1, “Function Inhibitor of Effector Cell” (priority 2003, published 2007).

Columns and labels:
[1] = test system: human CD4-positive Th1 differentiation cell; test: Cell growth inhibition test of human CD4-positive Th1 differentiation cell (anti-CD3 antibody stimulation, BrdU uptake); type: cell-based
Protocol: (§1) After treating the cells with BrdU for a predetermined period of time, the plate was centrifuged (300×g, 10 minutes), and then turned upside down and lightly shaken to remove the labeled medium. The plate was dried (for about 15 minutes) using a hair dryer. A cell fixing and DNA denaturing solution (200 μl, attached to the kit) was added to each well and left alone for 30 minutes. After removing the cell fixing and DNA denaturing solution and further removing water, a peroxidase-labeled anti-BrdU antibody (anti-BrdU-POD reaction solution) (100 μl) (attached to the kit) was added thereto and left alone at room temperature for 90 minutes. The antibody solution was discarded, each well was washed three times with PBS (200 μl), water was discarded, and then the substrate solution (100 μl) (attached to the kit) was added thereto. After carrying out the enzyme reaction for a period of 5 to 30 minutes, 1 N sulfuric acid solution (25 μl) was added thereto and stirred on a shaker. The absorbance of samples was measured by a microplate reader (SPECTRAMAX-PRO) at 450 nm (control wavelength: 690 nm).
The cells fractionated by the method described in the above-described (2-1) were inoculated into a 96 well plate coated with the anti-human CD3 antibody, at a cell density of 2×10^5 cells/100 μl/well, a medium (100 μl) containing 2 times concentration solution of each drug to be tested (contains 0.2% DMSO) was added thereto, and the cells were cultured for 48 hours in a CO2 incubator (5% CO2, humidity 95%) kept at 37° C. The BrdU uptake activity was measured by the method described in the above-described (2-4).
The cell growth inhibition activity of human CD8-positive memory T cell by the compounds of the […] was calculated as the inhibition ratio (%) in accordance with the following formula, in which the value of well to which the medium containing DMSO but not containing the drug to be tested was added was used as the control value (A), and the value of well to which the DMSO-containing medium containing the drug to be tested was added as the value (B). Inhibition ratio (%)=[(A−B)/A]×100 Results:
A heparinized blood sample was collected from a human, healthy volunteer, and peripheral blood mononuclear cell (PBMC) was isolated by the density gradient centrifugation described in the above-described (2-1). CD4-positive T cell was isolated from PBMC by a negative selection method using Human T Cell CD4 Subset Column Kit (R & D Systems, Inc). Specifically, the cells to be removed such as B cell, CD8-positive T cell, monocyte and the like were labeled with antibodies by adding an antibody cocktail (1 ml) (attached to the kit) to PBMC (up to 2×10^8 cells) and incubating at room temperature for 15 minutes. […]

[2] = test system: human CD8-positive T cell; test: Allo-reaction growth test (class I-MLR) of human CD8-positive T cell with dendritic cell; type: cell-based; settings: 5 days
Protocol: as §1
A heparinized blood sample was collected from a human, healthy volunteer, and peripheral blood mononuclear cell (PBMC) was isolated by the density gradient centrifugation described in the above-described (2-1). CD8-positive T cell was isolated from this PBMC by the negative selection method described in the above-described (2-1).
CD 14-positive cell was obtained by fractionating the PBMC obtained by the above-described method using VarioMACS (Miltenyl Biotec). Specifically, CD14 antigen was labeled with antibody magnetic beads by adding 20 μl of CD14 MicroBeads (Miltenyl Biotec) to 1×10^7 cells of the PBMC, mixing them and incubating at 6 to 12° C. for 15 minutes. The cells were washed once with an MACS buffer (PBS containing 2 mM EDTA and 0.5% bovine serum albumin (BSA)) (20 ml) (attached to the kit) and re-suspended in the MACS buffer (2 ml). […]

| SMILES | inhibition ratio of cell growth ([1]; 0.1 μM) [%] | inhibition ratio of cell growth ([1]; 10 μM) [%] | inhibition ratio of allo-reaction growth ([2]; 0.1 μM) [%] | inhibition ratio of allo-reaction growth ([2]; 1 μM) [%] | inhibition ratio of allo-reaction growth ([2]; 10 μM) [%] |
| --- | --- | --- | --- | --- | --- |
| CCCCN1C(=O)[C@@H]([C@H](O)C2CCCCC2)NC(=O)C12CCN(Cc1ccc(Cc3ccc(C(=O)O)cc3OC)cc1)CC2 [Compound (b), 4-[4-({(3R)-1-butyl-3-[(R)-cyclohexyl(hydroxy)methyl]-2,5-dioxo-1,4,9-triazaspiro[5.5]undec-9-yl}methyl)benzyl]-3-methoxybenzoic acid] | −2.3 | 21.8 | 7.8 | 17.6 | 44.1 |
| CCCCN1C(=O)[C@@H]([C@H](O)C2CCCCC2)NC(=O)C12CCN(Cc1ccc(Oc3ccc(C(=O)O)cc3OCC)cc1)CC2.Cl [Compound (c), 4-[4-({(3R)-1-butyl-3-[(R)-cyclohexyl(hydroxy)methyl]-2,5-dioxo-1,4,9-triazaspiro[5.5]undec-9-yl}methyl)phenoxy]-3-ethoxybenzoic acid hydrochloride] | 48.3 | 47.7 | – | – | – |
